The source of these data is patent publication US20220195056A1, “METHOD OF TREATING KELOIDS” (Icahn School of Medicine at Mount Sinai, priority 2019, published 2022).

Holding throughout (assay type): in vivo, human
For experiment [1], the system named is keloid. In words: Clinical keloid response to dupilumab in a subject with severe atopic dermatitis and two keloid nodules. An excerpt: (A) On the right popliteal fossa, a large depigmented keloid (denoted by the dotted arrow) measured at 3.5 cm horizontal, 2.8 cm vertical, and 2.1 cm, and a smaller adjacent keloid (denoted by the bold arrow) measured at 1.2 cm horizontal, 0.7 cm vertical, and 1.1 cm, August 2018. […] Images to scale and taken with different perspectives. Th2-specific inflammatory biomarkers (C-E) measured by quantitative real-time PCR in healthy skin and keloid non-lesional (NL) and lesional (LS) skin. Black stars: significance of comparison between keloid skin and controls. Black lines within boxes represent median values; bold red lines represent mean values. Each black dot represents an individual patient; ^+P<0.1, *P<0.05.
A subject afflicted with severe atopic dermatitis (AD) (body surface area/BSA 70%; SCORing of AD/SCORAD, 50; Eczema Area and Severity Index/EASI, 33) post-inflammatory hypopigmentation, and two keloid nodules was treated with dupilumab. […] Both nodules were present for more than 2 years. […] The subject received 300 mg subcutaneous dupilumab injections for severe AD, administered every 2 weeks for a month.

The next experiment concerns keloids. In words: Clinical keloid response to dupilumab injections in African American keloid patients. On the procedure:
(A) The image depicts keloids before treatment with dupilumab in a patient. (B) The image depicts keloids in a patient after 1.5 months of treatment with dupilumab (subcutaneous injections of 300 mg every week, after 600 mg induction at baseline). (C) The image depicts keloids in the same patient at the end of the third month of treatment with dupilumab.
A subject with keloids, but without other dermatological symptoms, was treated with dupilumab. The subject received 300 mg subcutaneous dupilumab injections, administered weekly.
The inventors observed a significant keloid reduction in yet a third patient treated with dupilumab. Another patient with keloids, but no other dermatological symptoms, received weekly subcutaneous injections of dupilumab (300 mg) and observed a positive response.
In addition, only the weekly injections were sufficient to maintain the size reduction and to treat the pain and irritation associated with the keloids in the afflicted patients.

For experiment [2], the system named is keloid. In words: Prior treatment of keloid nodules with intralesional triamcinolone injections. The following applies: before dupilumab.
The mark [3] stands for this setting: after 3 months, weekly subcutaneous 300 mg.
The mark [4] stands for this setting: after 3 months, weekly subcutaneous 300 mg after 600 mg induction.

“Also recorded” adds a separate entry of the source.

Turning to dupilumab, the “outcome of the smaller adjacent keloid” value with keloid [1] (after dupilumab treatment (seven months), before treatment 1.2 cm horizontal, 0.7 cm vertical, 1.1 cm) is recorded as “complete disappearance”. The “larger keloid nodule size, third (unnamed) dimension, after dupilumab” value in the experiment with keloid [1] (post-treatment, before treatment 2.1 cm) came to 0.9 cm. For the same compound, the “larger keloid nodule size, vertical, after dupilumab” value in the experiment on keloid [1] (post-treatment, before treatment 2.8 cm) came out at 1 cm. The “larger keloid nodule size, horizontal, after dupilumab” value in the experiment on keloid [1] (post-treatment, before treatment 3.5 cm) amounted to 1.6 cm. The “reduction in size of the large keloid” value in the experiment with keloid [1] (seven months after dupilumab treatment, 300 mg subcutaneous every 2 weeks for a month, right popliteal fossa) is above 50%. In the experiment on keloids (3 months, 300 mg subcutaneous every week after 600 mg induction at baseline), the “change in keloid size (FIG. 3 patient)” value is “noticeable reduction in the keloid size; also recorded: reduction in size and depth”. In addition, in the experiment on keloids (setting [3]), the “keloid shrinkage in diameter (FIG. 5 patient)” value is given as 0.8 cm and the “keloid shrinkage in height (FIG. 5 patient)” value was 0.5 cm. For the same compound, in the experiment on keloids (setting [4]), the “keloid shrinkage in diameter (FIG. 4 patient)” value was determined as 2 cm and the “keloid shrinkage in height (FIG. 4 patient)” value was 0.5 cm. Moreover, in the experiment with keloids (injections every other week), the “efficacy of every other week injections on keloids” value is “insufficient to treat keloids”. Further, the “patients with reduction in keloid size and shape” value with keloids (weekly dupilumab injections, African American patients) was “three of the three”. In the experiment on keloids (weekly subcutaneous 300 mg), the “change in keloid size (third patient, FIG. 5)” value was “noticeable reduction in the keloid size”.
Turning to `C[C@]12C=CC(=O)C=C1CC[C@H]1[C@@H]3C[C@@H](O)[C@](O)(C(=O)CO)[C@@]3(C)C[C@H](O)[C@@]12F` [triamcinolone], in the experiment with keloid [2], the “keloid response to prior intralesional treatment” value is on record as “minimal improvement”.
